For data set [1], the target named is T1, native human transporter GlyT1 (Homo sapiens, UniProt P48067).
T1 construct: expressing the native human transporter GlyT1; endogenous in cells; host or cells: SK-N-MC (human neuroepithelial cells)
T1 sequence (P48067 1-706): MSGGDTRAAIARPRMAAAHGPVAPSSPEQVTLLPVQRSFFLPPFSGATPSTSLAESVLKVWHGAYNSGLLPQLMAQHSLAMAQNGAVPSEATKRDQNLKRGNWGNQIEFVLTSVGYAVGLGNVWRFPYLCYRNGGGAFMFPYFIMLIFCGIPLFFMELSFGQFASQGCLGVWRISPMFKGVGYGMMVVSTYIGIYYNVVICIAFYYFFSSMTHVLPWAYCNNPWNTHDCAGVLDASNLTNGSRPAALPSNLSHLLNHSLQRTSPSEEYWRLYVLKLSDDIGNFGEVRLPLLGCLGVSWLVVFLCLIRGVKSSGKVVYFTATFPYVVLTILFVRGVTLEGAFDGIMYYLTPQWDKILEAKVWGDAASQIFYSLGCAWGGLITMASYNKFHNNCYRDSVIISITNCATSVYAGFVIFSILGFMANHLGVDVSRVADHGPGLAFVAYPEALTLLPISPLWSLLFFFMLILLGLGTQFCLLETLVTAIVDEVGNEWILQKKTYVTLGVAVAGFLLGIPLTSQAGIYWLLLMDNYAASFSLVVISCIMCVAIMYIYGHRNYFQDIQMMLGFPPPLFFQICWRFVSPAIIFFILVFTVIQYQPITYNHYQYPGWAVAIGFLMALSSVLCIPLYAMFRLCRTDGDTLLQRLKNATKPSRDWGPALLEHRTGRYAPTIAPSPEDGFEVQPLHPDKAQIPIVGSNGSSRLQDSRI
Nature of the data set: Study of glycine transportation ([14C]glycine uptake) in SK-N-MC cells expressing the native human transporter GlyT1. Format: cell-based. The conditions noted are these: 10 μM [14C]glycine, 10 min at 37° C., concentration which reduces by 50% the specific uptake of glycine, read-out: CI50 (the source's name). On the procedure:
Study of Glycine Transportation in SK-N-MC Cells Expressing the Native Human Transporter GlyT1.
The uptake of [^14C]glycine is studied in SK-N-MC cells (human neuroepithelial cells) expressing the native human transporter GlyT1 by measuring the radioactivity incorporated in the presence or absence of the test compound. The cells are cultured as a monolayer for 48 hours in plates pretreated with 0.02% fibronectin. On the day of the experiment, the culture medium is removed and the cells are washed with Krebs-HEPES (4-(2-hydroxyethyl)piperazine-1-ethanesulphonic acid) buffer at pH 7.4. After preincubation for 10 minutes at 37° C. in the presence either of buffer (control batch) or of test compound at various concentrations or of 10 mM of glycine (determination of the non-specific uptake), 10 μM of [^14C]glycine (specific activity 112 mCi/mmol) are subsequently added. Incubation is continued for 10 min at 37° C. and the reaction is halted by washing twice with pH 7.4 Krebs-HEPES buffer. The radioactivity incorporated by the cells is then estimated after adding 100 μl of liquid scintillant and stirring for 1 h. Counting is carried out on a Microbeta Tri-Lux™ counter. The effectiveness of the compound is determined by the IC50, the concentration of the compound which reduces by 50% the specific uptake of glycine, defined by the difference in radioactivity incorporated by the control batch and the batch which received the 10 mM glycine.

Where a name gives a salt, the structure may show the parent alone.

Melting point and IC50 data for eleven molecules are collected here from patent US20120029027A1, “N-[(6-AZA-BICYCLO[3.2.1]OCT-5-YL)-ARYL-METHYL]-HETEROBENZAMIDE DERIVATIVES, PREPARATION THEREOF, AND THERAPEUTIC USE OF SAME” (SANOFI, priority 2009, published 2012).

`O=C(NC(c1ccccc1)C12CCCC(CN1)C2)c1nccc(C(F)(F)F)c1Cl` (racemic) (as salt: HCl) [Compound 3, N-[(6-Azabicyclo[3.2.1]oct-5-yl)phenylmethyl](3-chloro-4-trifluoromethyl)pyridine-2-carboxamide]: the melting point – broadly, the temperature of the solid-liquid transition – lay within 158 to 160 °C. As to `CSc1ncccc1C(=O)NC(c1ccc(F)cc1)C12CCCC(CN1)C2` (racemic) (as salt: HCl) [Compound 8, N-[(6-Azabicyclo[3.2.1]oct-5-yl)(4-fluorophenyl)methyl]-2-methylsulfanyl-nicotinamide], the melting point was in the range of 234 to 236 °C.

The molecule `CSc1ncccc1C(=O)NC(c1cccc(C)c1)C12CCCC(CN1)C2` (racemic) (as salt: HCl) [Compound 10, N-[(-6-Azabicyclo[3.2.1]oct-5-yl)-m-tolylmethyl]-2-methylsulfanylnicotinamide] gave a melting point of 205 to 207 °C. Take `O=C(NC(c1cccc(C(F)(F)F)c1)C12CCCC(CN1)C2)c1nccc(C(F)(F)F)c1Cl` (racemic) (as salt: HCl) [Compound 11, N-[(6-Azabicyclo[3.2.1]oct-5-yl)(3-trifluoromethylphenyl)methyl](3-chloro-4-trifluoromethyl)pyridine-2-carboxamide]: the melting point is 250.4 to 251.4 °C. On the same count and under the same terms, for `O=C(NC(c1ccccc1)C12CCCC(CN1)C2)c1cc(Cl)sc1Cl` (racemic) [Compound 1, N-[(6-Azabicyclo[3.2.1]oct-5-yl)phenylmethyl](2,5-dichloro)thiophene-3-carboxamide] the value was 95 to 97 °C. Consider `CSc1ncccc1C(=O)NC(c1ccccc1)C12CCCC(CN1)C2` (racemic) [Compound 2, N-[(6-azabicyclo[3.2.1]oct-5-yl)phenylmethyl](2-methylsulphanyl)nicotinamide], for which, in data set [1], the IC50 is 140 nM. As for `O=C(NC(c1ccccc1)C12CCCC(CN1)C2)c1nccc(C(F)(F)F)c1Cl` (racemic) [Compound 3, N-[(6-Azabicyclo[3.2.1]oct-5-yl)phenylmethyl](3-chloro-4-trifluoromethyl)pyridine-2-carboxamide], the IC50 in data set [1] was determined as 220 nM.

As to `Cn1cnc(C(=O)NC(c2ccccc2)C23CCCC(CN2)C3)c1` (racemic) [Compound 7, N-[(6-Azabicyclo[3.2.1]oct-5-yl)phenylmethyl](1-methyl)-1H-imidazole-4-carboxamide], the melting point fell in the range of 150 to 152 °C. `CSc1ncccc1C(=O)NC(c1ccc(F)cc1)C12CCCC(CN1)C2` (racemic) [Compound 8, N-[(6-Azabicyclo[3.2.1]oct-5-yl)(4-fluorophenyl)methyl]-2-methylsulfanyl-nicotinamide]: in data set [1], the IC50 came to 130 nM.

For the molecule `O=C(NC(c1cccc(C(F)(F)F)c1)C12CCCC(CN1)C2)c1nccc(C(F)(F)F)c1Cl` (racemic) [Compound 11, N-[(6-Azabicyclo[3.2.1]oct-5-yl)(3-trifluoromethylphenyl)methyl](3-chloro-4-trifluoromethyl)pyridine-2-carboxamide], in data set [1], the IC50 stood at 170 nM. Take `O=C(NC(c1ccccc1)C12CCCC(CN1)C2)c1cccc2c1ccn2Cc1ccccc1` (centres unmarked) [Compound 6, [(6-Azabicyclo[3.2.1]oct-5-yl)phenylmethyl](1-benzyl)-1H-indole-4-carboxamide]: the IC50 in data set [1] was 610 nM.
